According to US20250041267A1, “TREATEMENT FOR CRYOPYRIN ASSOCIATED PERIODIC SYNDROMES (CAPS)” (Zydus Lifesciences Limited, priority 2021, published 2025):
Like-named read-outs stand apart in the source and are kept apart here.

Key:
[1] = Phase 1 single oral dose safety and tolerability in healthy subjects; format: in vivo, human; conditions: till 100 mg single dose
[2] = Phase 1 single oral dose pharmacokinetics in healthy subjects (plasma and urine, LC-MS/MS); format: in vivo, human; conditions: for half-life / Cmax / dose excreted: human; for half-life / Cmax: plasma; for half-life: read-out: mean elimination half-life (converted); for dose excreted: urine, read-out: mean cumulative percentage urinary recovery of unchanged compound
[3] = system: activated THP-1 cells, hPBMCs and whole blood; assay: IL-1β and IL-18 secretion from cells treated with LPS and ATP; format: cell-based, human
Procedure: Compound 11, a potent NLRP3 inflammazome inhibitor blocks the IL-1β and IL-18 secretion from activated THP-1 cells, hPBMCs (Human peripheral blood mononuclear cell) and whole blood treated with LPS (lipopolysaccharide) and ATP (Adenosine triphosphate). For the whole blood assay, human peripheral venous blood was collected from healthy volunteers following the protocol approved by ethics committee. Whole blood was distributed in 96-well plates and primed with LPS (500 ng/mL) for 4 hours. Different concentrations of compound 11 was added in the presence of serum free media. NLRP3 inflammasome was induced with ATP (5 mM) for 1 hour. The supernatant was collected at the end of 1 hour and assayed for released IL-1β using the ELISA method. The inhibition in the cytokine levels was plotted and the half maximal inhibitory concentration was derived.

[4] = 25 mg single oral dose, cohort S1
[5] = 50 mg single oral dose, cohort S2
[6] = 100 mg single oral dose, cohort S3

mean plasma clearance [2, 4]: 0.922 ± 0.01 L/h
mean volume of distribution [2, 4]: 8681.147 ± 929.14 mL
mean plasma clearance [2, 5]: 1.238 ± 0.22 L/h
mean volume of distribution [2, 5]: 10285.52 ± 1174.32 mL
mean plasma clearance [2, 6]: 1.099 ± 0.15 L/h
mean volume of distribution [2, 6]: 9847.576 ± 825.72 mL
half-life ([2]; oral, across all three doses (25, 50, 100 mg)): 6 to 6.5 h
Cmax [2, 4]: 3390 ± 720 ng/mL
half-life [2, 4]: 6.53 ± 0.67 h
Cmax [2, 5]: 5720 ± 520 ng/mL
half-life [2, 5]: 5.82 ± 0.47 h
half-life [2, 6]: 6.28 ± 0.65 h
dose excreted [2, 4]: 93.3%
dose excreted [2, 5]: 69.1%
dose excreted [2, 6]: 76.6%
SMILES: CN1CCC[C@]1(C)/C=C/S(=O)(=O)NC(=O)Nc1c2c(cc3c1CCC3)CCC2 [Compound 11, (R,E)-2-(1,2-dimethylpyrrolidin-2-yl)-N-((1,2,3,5,6,7-hexahydro-s-indacen-4-yl)carbamoyl)ethene-1-sulfonamide]
safety and tolerability [1]: safe and well tolerated
IL-1β and IL-18 secretion [3]: blocks
